# Test results as given in patent publication US20100021893A1, “Modulators of lanosterol synthetase for treating acne or hyperseborrhea” (GALDERMA RESEARCH & DEVELOPMENT, priority 2006, published 2010).
# Test system: mRNA for lanosterol synthetase in the mouse preputial gland
# Settings: gonadectomized male mice, short-term treatment, Affymetrix, effect visible at 18, 24 and 96 hours
# Experimental: The expression of the genes was analyzed on an Affymetrix station (microfluidic model; hybridization oven; scanner; computer) following the protocols provided by the company. Briefly, the total RNA isolated from the tissues is transcribed to cDNA. From the double-stranded cDNA, a cRNA labeled with biotin is synthesized using T7 polymerase and a precursor NTP conjugated to biotin. The cRNAs are then fragmented to small sized fragments. All the molecular biology steps are checked using the Agilent “Lab on a chip” system in order to confirm the good efficiencies of the enzymatic reactions. The Affymetrix chip is hybridized with the biotinylated cRNA, rinsed and then fluorescence labeled using a fluorophore conjugated to streptavidin. After washings, the chip is scanned and the results are calculated using the MAS5 software provided by Affymetrix. An expression value is obtained for each gene as well as the indication of the significance of the value obtained. […]
# The gene expression was analyzed using the Affymetrix technology described above (FIG. 1A) and the results were then confirmed by the real-time PCR technique (FIG. 1B).
# B. Male mice were gonadectomized and were then treated with the vehicle or DHT. […] The RNA was isolated and the expression of the genes was analyzed by the Affymetrix technique. […]
structure (smiles),measurement,value
"C[C@]12CCC(=O)C[C@@H]1CC[C@@H]1[C@@H]2CC[C@]2(C)[C@@H](O)CC[C@@H]12 [DHT, Dihydrotestosterone]",level of expression of the mRNA for lanosterol synthetase,induced
